Tests used:
[1] = system: New Zealand white rabbits; assay: Experiment on muscle relaxation in anesthetized rabbits (TOF neuromuscular transmission monitor); format: in vivo, rabbit; settings: for ED (2 x ED95): Oryctolagus cuniculus, intravenous injection, propofol anesthesia; for ED (2 x ED95) / Onset time / Recovery time: N = 8; for Onset time: TOF=0, after i.v. 2× ED95 equivalent dose; for Recovery time: TOF=90%, after i.v. 2× ED95 equivalent dose; for change characteristics of TOF 1-4 after administration: depolarizing vs non-depolarizing pattern
Description: Male New Zealand white rabbits weighing 2-3.5 kg were used as experimental animals for muscle relaxation test. The specific procedures were: propofol emulsion was intravenously administrated to induce and maintain general anesthesia (induction dose: 10 mg/kg; maintenance dose: […]). Tracheal intubation was carried out and respiratory support was used.

human body = settings: after single administration, clinical use; cited from earlier work

Q: For `C[N+](CCOC(=O)OCOC(=O)CCC[N+]1(Cc2ccc([N+](=O)[O-])cc2)CCCCC1)(Cc1ccc(C#N)cc1)Cc1ccc([N+](=O)[O-])cc1` (centres unmarked) [Compound 8], which ED (2 x ED95) [1] is on record?
A: The ED (2 x ED95) was 1.7 mg/kg.

Q: And the Onset time [1]?
A: Its Onset time is <40 s.

Q: And the Recovery time [1]?
A: Its Recovery time is 7.2 ± 1.4 min.

Q: For `C[N+](CCOC(=O)OCOC(=O)CCC[N+]1(Cc2ccc([N+](=O)[O-])cc2)CCCCC1)(Cc1ccc([N+](=O)[O-])cc1)Cc1ccc([N+](=O)[O-])cc1` [Compound 7], which ED (2 x ED95) [1] is on record?
A: The ED (2 x ED95) was 1.6 mg/kg.

Q: And the Onset time [1]?
A: Its Onset time is <40 s.

Q: And the Recovery time [1]?
A: The Recovery time was 5.2 ± 1.1 min.

Q: With `C[N+](CCOC(=O)OCOC(=O)CCC[N+]1(Cc2ccc([N+](=O)[O-])cc2)CCCCC1)(Cc1ccc(F)cc1)Cc1ccc([N+](=O)[O-])cc1` (centres unmarked) [Compound 3] as the compound, how does the ED (2 x ED95) [1] read?
A: The ED (2 x ED95) was 1.8 mg/kg.

Q: And the Onset time [1]?
A: Its Onset time is <40 s.

Q: What about the Recovery time [1] of the same compound?
A: Its Recovery time is 4.8 ± 0.5 min.

Q: With `C[N+](CCOC(=O)OCOC(=O)CCC[N+]1(Cc2ccc([N+](=O)[O-])cc2)CCCCC1)(Cc1ccc([N+](=O)[O-])cc1)Cc1ccc(Cl)cc1Cl` (centres unmarked) [Compound 5] as the compound, how does the ED (2 x ED95) [1] read?
A: The ED (2 x ED95) was 1.6 mg/kg.

Q: What about the Onset time [1] of the same compound?
A: Its Onset time is <40 s.

Q: And the Recovery time [1]?
A: Its Recovery time is 5.2 ± 1.2 min.

Q: For micuronium, which “duration of muscle relaxation / action time” value (human body) is on record?
A: Its value is 15 to 20 min.

Q: With `C[N+](CCOC(=O)OCOC(=O)CCC[N+]1(Cc2ccc([N+](=O)[O-])cc2)CCCCC1)(Cc1ccc([N+](=O)[O-])cc1)Cc1ccc(C(F)(F)F)cc1` (centres unmarked) [Compound 9] as the compound, how does the ED (2 x ED95) [1] read?
A: Its ED (2 x ED95) is 1.6 mg/kg.

Q: What about the Onset time [1] of the same compound?
A: The Onset time was <40 s.

Q: And the Recovery time [1]?
A: Its Recovery time is 5.2 ± 1.2 min.

Q: For `C[N+](CCOC(=O)OCOC(=O)CCC[N+]1(Cc2ccc([N+](=O)[O-])cc2)CCC(F)(F)CC1)(Cc1ccccc1)Cc1ccc([N+](=O)[O-])cc1` (centres unmarked) [Compound 45], which ED (2 x ED95) [1] is on record?
A: Its ED (2 x ED95) is 0.8 mg/kg.

Q: And the Onset time [1]?
A: Its Onset time is <40 s.

Q: And the Recovery time [1]?
A: Its Recovery time is 5.1 ± 1.4 min.

Q: Which results are given for `C[N+](CCOC(=O)OCOC(=O)CCC[N+]1(Cc2ccc(C(F)(F)F)cc2)CCCCC1)(Cc1ccccc1)Cc1ccc([N+](=O)[O-])cc1` (centres unmarked) [Compound 10]?
A: ED (2 x ED95) [1]: 2.4 mg/kg; Onset time [1]: <40 s; Recovery time [1]: 6.2 ± 0.9 min

Q: Which ED (2 x ED95) [1] does the source give for `C[N+](CCOC(=O)OCOC(=O)CCC[N+]1(Cc2ccc([N+](=O)[O-])cc2)CCCCC1)(Cc1ccc(Cl)cc1)Cc1ccc([N+](=O)[O-])cc1` (centres unmarked) [Compound 4] here?
A: The ED (2 x ED95) was 1.4 mg/kg.

Q: And the Onset time [1]?
A: The Onset time was <40 s.

Q: What about the Recovery time [1] of the same compound?
A: The Recovery time was 5.4 ± 0.9 min.

Q: Which results are given for `C[N+](CCOC(=O)OCOC(=O)COCC[N+]1(Cc2ccc([N+](=O)[O-])cc2)CCCCC1)(Cc1ccccc1)Cc1ccc([N+](=O)[O-])cc1` (centres unmarked) [Compound 19]?
A: ED (2 x ED95) [1]: 0.8 mg/kg; Onset time [1]: <40 s; Recovery time [1]: 4.1 ± 0.8 min

Q: For `COc1ccc(C[N+](C)(CCOC(=O)OCOC(=O)CCC[N+]2(Cc3ccc(OC)c(OC)c3)CCCCC2)Cc2ccc(OC)c(OC)c2)cc1OC` [Compound 12], which ED (2 x ED95) [1] is on record?
A: The ED (2 x ED95) was 4.4 mg/kg.

Q: And the Onset time [1]?
A: The Onset time was <40 s.

Q: And the Recovery time [1]?
A: The Recovery time was 6.3 ± 2.1 min.

Q: Which ED (2 x ED95) [1] does the source give for `C[N+](CCCCOC(=O)OCOC(=O)C[N+]1(Cc2ccc([N+](=O)[O-])cc2)CCCCC1)(Cc1ccccc1)Cc1ccc([N+](=O)[O-])cc1` (centres unmarked) [Compound 1] here?
A: Its ED (2 x ED95) is 0.8 mg/kg.

Q: What about the Onset time [1] of the same compound?
A: Its Onset time is <40 s.

Q: And the Recovery time [1]?
A: Its Recovery time is 5.2 ± 1.1 min.

Q: For `C[N+](C)(C)CCOC(=O)CCC(=O)OCC[N+](C)(C)C` [Succinylcholine, reference compound], which ED (2 x ED95) [1] is on record?
A: Its ED (2 x ED95) is 1.8 mg/kg.

Q: And the Onset time [1]?
A: The Onset time was <40 s.

Q: What about the Recovery time [1] of the same compound?
A: The Recovery time was 13.3 ± 3.5 min.

Q: What about the “change characteristics of TOF 1-4 after administration” value [1] of the same compound?
A: The value was “decreased in the same proportion until disappearance”.

Q: And the “duration of muscle relaxation / action time” value (human body)?
A: Its value is 10 min.

Q: With `Cc1ccc(C[N+](C)(CCCCOC(=O)OCOC(=O)C[N+]2(Cc3ccc(C)c(C)c3)CCCCC2)Cc2ccc(C)c(C)c2)cc1C` [Compound 13] as the compound, how does the ED (2 x ED95) [1] read?
A: Its ED (2 x ED95) is 6.2 mg/kg.

Q: And the Onset time [1]?
A: Its Onset time is <40 s.

Q: What about the Recovery time [1] of the same compound?
A: Its Recovery time is 6.9 ± 1.7 min.

Q: For `C[N+](CCOC(=O)OCOC(=O)C[N+]1(Cc2ccc([N+](=O)[O-])cc2)CCCCC1)(Cc1ccccc1)Cc1ccc([N+](=O)[O-])cc1` (centres unmarked) [Compound 2], which ED (2 x ED95) [1] is on record?
A: The ED (2 x ED95) was 0.9 mg/kg.

Q: What about the Onset time [1] of the same compound?
A: Its Onset time is <40 s.

Q: And the Recovery time [1]?
A: Its Recovery time is 6.4 ± 1.4 min.

Q: Which results are given for `C[N+](CCOC(=O)OCOC(=O)CCC[N+]1(Cc2ccc([N+](=O)[O-])cc2)CCCCC1)(Cc1ccc([N+](=O)[O-])cc1)Cc1c(F)cccc1F` (centres unmarked) [Compound 6]?
A: ED (2 x ED95) [1]: 0.8 mg/kg; Onset time [1]: <40 s; Recovery time [1]: 4.1 ± 1.1 min

Q: Which ED (2 x ED95) [1] does the source give for `COc1ccc(C[C@@H]2c3cc(OC)c(OC)cc3CC[N@+]2(C)CCC(=O)OCCCCCOC(=O)CC[N@@+]2(C)CCc3cc(OC)c(OC)cc3[C@H]2Cc2ccc(OC)c(OC)c2)cc1OC` [Cisatracurium, reference compound] here?
A: Its ED (2 x ED95) is 0.08 mg/kg.

Q: And the Onset time [1]?
A: The Onset time was >90 s.

Q: And the Recovery time [1]?
A: The Recovery time was 17.6 ± 5.2 min.

Q: And the “change characteristics of TOF 1-4 after administration” value [1]?
A: The value was “successively and gradually decreased, rather than in equal proportion”.

Q: Which ED (2 x ED95) [1] does the source give for `C[N+](CCOC(=O)OCOC(=O)CCC[N+]1(Cc2ccc([N+](=O)[O-])cc2)CCCCC1)(Cc1ccc([N+](=O)[O-])cc1)Cc1ccsc1` (centres unmarked) [Compound 38] here?
A: Its ED (2 x ED95) is 1.2 mg/kg.

Q: What about the Onset time [1] of the same compound?
A: Its Onset time is <40 s.

Q: What about the Recovery time [1] of the same compound?
A: The Recovery time was 4.4 ± 1.1 min.

Q: For `C[N+](CCOC(=O)OCOC(=O)CCC[N+]1(Cc2ccc([N+](=O)[O-])cc2)CCCCC1)(Cc1ccc(-c2ccccc2)cc1)Cc1ccc([N+](=O)[O-])cc1` (centres unmarked) [Compound 11], which ED (2 x ED95) [1] is on record?
A: The ED (2 x ED95) was 1.5 mg/kg.

Q: And the Onset time [1]?
A: The Onset time was <40 s.

Q: What about the Recovery time [1] of the same compound?
A: Its Recovery time is 7.7 ± 1.6 min.

Q: For `CC(=O)O[C@H]1C[C@@H]2CC[C@@H]3[C@H](CC[C@@]4(C)[C@H]3C[C@H]([N+]3(C)CCCCC3)[C@@H]4OC(C)=O)[C@@]2(C)C[C@@H]1[N+]1(C)CCCCC1` [pancuronium], which “duration of muscle relaxation / action time” value (human body) is on record?
A: Its value is > 60 min.

Q: For `C[N+](CCOC(=O)OCOC(=O)CCC[N+]1(Cc2ccc([N+](=O)[O-])cc2)CCCC1)(Cc1ccc(F)cc1)Cc1ccc([N+](=O)[O-])cc1` (centres unmarked) [Compound 47], which ED (2 x ED95) [1] is on record?
A: Its ED (2 x ED95) is 1.4 mg/kg.

Q: What about the Onset time [1] of the same compound?
A: Its Onset time is <40 s.

Q: And the Recovery time [1]?
A: Its Recovery time is 3.1 ± 0.7 min.

Q: What does the source list for `CC1CC[N+](CCCC(=O)OCOC(=O)OCC[N+](C)(Cc2ccccc2)Cc2ccc([N+](=O)[O-])cc2)(Cc2ccc([N+](=O)[O-])cc2)CC1` (centres unmarked) [Compound 35]?
A: ED (2 x ED95) [1]: 1 mg/kg; Onset time [1]: <40 s; Recovery time [1]: 7.2 ± 2.3 min
